Source: paper PMC10041525, “New Dual Inhibitors of Bacterial Topoisomerases with Broad-Spectrum Antibacterial Activity and In Vivo Efficacy against Vancomycin-Intermediate Staphylococcus aureus” (Journal of Medicinal Chemistry, 2023)
≈ marks a conversion by molar mass, not a printed value. Where “and” joins values, the source holds several entries; their conditions need not be identical. Identical values can stand only once. Like-named read-outs stand apart in the source and are kept apart here.

Experiments:
A. baumannii topo IV = A. baumannii topo IV (Acinetobacter baumannii, UniProt A0ABX6CMT0); assay: gel-based decatenation assay
Procedure: In all experiments, the activity of the
(§1) enzymes was determined prior to the testing of the compound and 1 unit (U) was defined as the
(§2) amount of enzyme required to just fully supercoil or decatenate the substrate. This amount of
(§3) enzyme was initially used in determination of control inhibitor activity. These experiments were
(§4) performed in duplicate. […] The final DMSO
(§5) concentration was 1% for all assays. All measurements were performed in quadruplicates. The
(§6) condition for each reaction were as follows:
− S. aureus gyrase supercoiling assay
(§7) 1 U of S. aureus gyrase was incubated with 0.5 µg of relaxed pBR322 DNA in a 30 µL reaction at
(§8) magnesium acetate, 10 mM DTT, 2 mM ATP, 500 mM potassium glutamate and 0.05 mg/mL
− S. aureus topo IV decatenation assay
(§9) 1 U of S. aureus topo IV was incubated with 20 µg kDNA in a 30 µL reaction at 37 °C for 30
(§10) mM ATP, 350 mM potassium glutamate and 0.05 mg/mL albumin.
(§11) − A. baumannii gyrase supercoiling assay
(§12) 1 U of A. baumannii gyrase was incubated with 0.5 µg of relaxed pBR322 DNA in a 30 µL reaction
(§13) blue), before being loaded on a 1.0% TAE gel run at 80V for 2 hours. Bands were visualised by
(§14) ethidium bromide staining for 20 minutes and destaining for 20 minutes. Gels were scanned using
(§15) documentation equipment (GeneGenius, Syngene, Cambridge, UK) and % inhibition levels were
(§16) measured by determining the relative fluorescence of the supercoiled band using gel scanning
software. […]

[1] = test system: Haemophilus influenzae (n = 14); assay: MIC broth microdilution at IHMA Europe; type: cell-based, H. influenzae; settings: for MIC: Haemophilus influenzae, read-out: MIC
[2] = target: T1, human DNA topoisomerase IIα (Homo sapiens, UniProt P11388); assay: DNA relaxation assay; type: biochemical
T1 construct: purchased Inspiralis
Procedure: Seven concentrations of the inhibitors were used to determine IC50 values which were then calculated with GraphPad Prism 6.0 software. Three independent measurements were performed to determine IC50 values, and mean values are reported as the final result.

A. baumannii DNA gyrase = A. baumannii DNA gyrase (Acinetobacter baumannii, UniProt A0ABX6CA01); assay: gel-based supercoiling assay; type: biochemical
Procedure: In all experiments, the activity of the
as §1, §2, §3, §4, §5, §6
− S. aureus gyrase supercoiling assay
as §7, §8
− S. aureus topo IV decatenation assay
as §9, §10, §11, §12, §13, §14, §15, §16
software. […]

[3] = test system: Neisseria gonorrhoeae (n = 12); assay: MIC broth microdilution at IHMA Europe; type: cell-based; settings: for MIC: Neisseria gonorrhoeae, read-out: MIC
S. pneumoniae (n = 12) = assay: MIC broth microdilution at IHMA Europe; type: cell-based; settings: for MIC: Streptococcus pneumoniae, read-out: MIC
[4] = test system: Chinese hamster ovary K1 cells; assay: in vitro micronucleus test
[5] = test system: P. aeruginosa PAO1, PAO750; assay: MIC, wild-type vs efflux-defective; type: cell-based; settings: Pseudomonas aeruginosa
hemolysis assay = type: cell-based; settings: human, red blood cells, pH 7.4; read-out: Haemolysis
Procedure: RBCs were washed three times in Tyrode buffer (130 mM NaCl, 4 mM KCl, 2.8 mM Na acetate, 1 mM MgCl2, 10 mM HEPES, 10 mM glucose, 1 mM CaCl2, adjusted to pH 7.4) and resuspended in the same buffer. Final concentrations in the hemolysis assay were 100 μM compound, 1% DMSO, and 50% RBC, assayed in a 200 μL volume in a microtiter plate. The mixture was incubated at 37 °C for 45 min with shaking (250 rpm). After incubation, RBCs were removed by centrifugation, clear plasma was transferred to a fresh plate, and the amount of hemoglobin was measured using a spectrophotometer at 540 nm. The complete lysis control contained 2% Triton X-100 (in Tyrode buffer) instead of compound; the negative control contained Tyrode buffer but no compound. Percent hemolysis was calculated as: [Abs compound] – [Abs negative control]/[Abs complete lysis control] – [Abs negative control] × 100. Values greater than 1% hemolysis at 100 μM were regarded as a red flag.

T1 sequence (P11388 whole entry): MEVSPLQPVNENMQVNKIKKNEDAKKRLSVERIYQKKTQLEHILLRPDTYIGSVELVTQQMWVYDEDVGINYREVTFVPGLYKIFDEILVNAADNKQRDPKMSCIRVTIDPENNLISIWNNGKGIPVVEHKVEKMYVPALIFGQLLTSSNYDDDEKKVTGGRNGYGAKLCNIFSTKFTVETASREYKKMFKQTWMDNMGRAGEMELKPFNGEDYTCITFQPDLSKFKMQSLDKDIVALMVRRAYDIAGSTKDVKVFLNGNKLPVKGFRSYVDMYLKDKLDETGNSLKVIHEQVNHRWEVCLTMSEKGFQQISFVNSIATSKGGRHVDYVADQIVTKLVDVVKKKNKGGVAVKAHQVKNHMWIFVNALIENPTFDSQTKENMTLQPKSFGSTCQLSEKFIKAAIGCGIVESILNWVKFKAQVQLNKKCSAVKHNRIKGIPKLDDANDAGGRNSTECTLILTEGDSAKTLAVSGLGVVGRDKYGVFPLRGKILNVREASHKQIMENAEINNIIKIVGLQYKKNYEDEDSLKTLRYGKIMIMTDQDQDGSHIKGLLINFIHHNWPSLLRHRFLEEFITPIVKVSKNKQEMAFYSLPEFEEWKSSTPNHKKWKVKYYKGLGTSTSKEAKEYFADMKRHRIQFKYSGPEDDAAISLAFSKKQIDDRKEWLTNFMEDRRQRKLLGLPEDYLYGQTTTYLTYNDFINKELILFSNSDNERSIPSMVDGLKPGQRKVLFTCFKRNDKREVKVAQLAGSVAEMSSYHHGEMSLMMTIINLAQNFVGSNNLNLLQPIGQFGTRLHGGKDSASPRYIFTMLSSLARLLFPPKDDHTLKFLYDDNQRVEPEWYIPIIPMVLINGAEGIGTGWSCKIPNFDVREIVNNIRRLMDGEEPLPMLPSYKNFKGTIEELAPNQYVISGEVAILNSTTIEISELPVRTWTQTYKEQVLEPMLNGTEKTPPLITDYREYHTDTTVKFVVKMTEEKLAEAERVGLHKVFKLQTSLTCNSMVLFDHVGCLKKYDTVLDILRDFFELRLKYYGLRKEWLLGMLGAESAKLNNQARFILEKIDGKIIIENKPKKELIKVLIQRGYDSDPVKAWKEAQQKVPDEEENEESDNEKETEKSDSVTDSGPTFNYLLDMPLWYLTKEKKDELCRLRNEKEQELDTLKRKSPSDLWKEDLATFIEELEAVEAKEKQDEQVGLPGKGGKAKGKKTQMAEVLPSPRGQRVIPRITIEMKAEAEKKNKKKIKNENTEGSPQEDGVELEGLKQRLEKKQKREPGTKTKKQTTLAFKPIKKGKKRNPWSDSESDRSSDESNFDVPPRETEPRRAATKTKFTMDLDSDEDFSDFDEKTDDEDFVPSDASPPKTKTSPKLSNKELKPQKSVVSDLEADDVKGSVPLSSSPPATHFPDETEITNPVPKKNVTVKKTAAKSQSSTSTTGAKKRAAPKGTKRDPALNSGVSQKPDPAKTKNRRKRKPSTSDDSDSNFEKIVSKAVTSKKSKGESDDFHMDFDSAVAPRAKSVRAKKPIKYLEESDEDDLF

## Cc1[nH]c(C(=O)Nc2nc3c(N4CCOCC4)cc(C(=O)O)cc3s2)c(Cl)c1Cl [7a, 2-(3,4-Dichloro-5-methyl-1H-pyrrole-2-carboxamido)-4-morpholinobenzo[d]thiazole-6-carboxylic Acid]
A. baumannii topo IV
  IC50: 0.12 ± 0.00834 µM
[1]
  No. of isolates at MIC: 3 and 6 and 4
[1]; H. influenzae IHMA N° 1227715
  MIC: 0.12 µg/mL (≈ 0.264 µM)
[1]; H. influenzae IHMA N° 1241620
  MIC: 0.25 µg/mL (≈ 0.549 µM)
[1]; H. influenzae IHMA N° 1244149
  MIC: 0.5 µg/mL (≈ 1.1 µM)
[1]; H. influenzae IHMA N° 1249803
  MIC: 0.12 µg/mL (≈ 0.264 µM)
[1]; H. influenzae IHMA N° 1254355
  MIC: 0.25 µg/mL (≈ 0.549 µM)
[1]; H. influenzae IHMA N° 1258580
  MIC: 0.5 µg/mL (≈ 1.1 µM)
[1]; H. influenzae IHMA N° 1262734
  MIC: 0.25 µg/mL (≈ 0.549 µM)
[1]; H. influenzae IHMA N° 1272723
  MIC: 0.25 µg/mL (≈ 0.549 µM)
[1]; H. influenzae IHMA N° 1286846
  MIC: 0.5 µg/mL (≈ 1.1 µM)
[1]; H. influenzae IHMA N° 1337530
  MIC: 0.12 µg/mL (≈ 0.264 µM)
[1]; H. influenzae IHMA N° 1440085
  MIC: 0.5 µg/mL (≈ 1.1 µM)
[1]; H. influenzae IHMA N° 1479509
  MIC: 1 µg/mL (≈ 2.2 µM)
[1]; H. influenzae IHMA N° 1952952
  MIC: 0.25 µg/mL (≈ 0.549 µM)
[1]; H. influenzae IHMA N° 2047461
  MIC: 0.25 µg/mL (≈ 0.549 µM)
[1]; MIC 1 µg/mL
  Cumulative % at MIC: 100.0%
  No. of isolates at MIC: 1
[1]; n = 14
  MIC, all isolates: ≤ 1 µg/mL
[2]
  IC50: 17 µM
A. baumannii DNA gyrase
  IC50: 0.00242 ± 0.00028 µM
[3]
  Cumulative % at MIC: 50.0% and 100.0%
  No. of isolates at MIC: 6
[3]; MIC 0.06 µg/mL
  No. of isolates at MIC: 6
[3]; isolate IHMA 1123853
  MIC: ≤ 0.03 µg/mL
[3]; isolate IHMA 1130935
  MIC: ≤ 0.03 µg/mL
[3]; isolate IHMA 1130989
  MIC: 0.06 µg/mL (≈ 0.132 µM)
[3]; isolate IHMA 1130991
  MIC: 0.06 µg/mL (≈ 0.132 µM)
[3]; isolate IHMA 1137292
  MIC: 0.06 µg/mL (≈ 0.132 µM)
[3]; isolate IHMA 1145734
  MIC: ≤ 0.03 µg/mL
[3]; isolate IHMA 1145735
  MIC: ≤ 0.03 µg/mL
[3]; isolate IHMA 1165897
  MIC: ≤ 0.03 µg/mL
[3]; isolate IHMA 1194748
  MIC: ≤ 0.03 µg/mL
[3]; isolate IHMA 1194750
  MIC: 0.06 µg/mL (≈ 0.132 µM)
[3]; isolate IHMA 1546199
  MIC: 0.06 µg/mL (≈ 0.132 µM)
[3]; isolate IHMA 1546215
  MIC: 0.06 µg/mL (≈ 0.132 µM)
[3]; n = 12
  MIC, all isolates: ≤ 0.06 µg/mL
S. pneumoniae (n = 12); MIC […]
  Cumulative % at MIC: 25.0%
S. pneumoniae (n = 12); S. pneumoniae IHMA N° 1775387
  MIC: 0.5 µg/mL (≈ 1.1 µM)
S. pneumoniae (n = 12); S. pneumoniae IHMA N° 1776057
  MIC: 0.5 µg/mL (≈ 1.1 µM)
S. pneumoniae (n = 12); S. pneumoniae IHMA N° 1785617
  MIC: 0.25 µg/mL (≈ 0.549 µM)
S. pneumoniae (n = 12); S. pneumoniae IHMA N° 1800765
  MIC: 0.5 µg/mL (≈ 1.1 µM)
S. pneumoniae (n = 12); S. pneumoniae IHMA N° 1811259
  MIC: 0.06 µg/mL (≈ 0.132 µM)
S. pneumoniae (n = 12); S. pneumoniae IHMA N° 1831562
  MIC: 0.5 µg/mL (≈ 1.1 µM)
S. pneumoniae (n = 12); S. pneumoniae IHMA N° 1902609
  MIC: 0.5 µg/mL (≈ 1.1 µM)
S. pneumoniae (n = 12); S. pneumoniae IHMA N° 1979675
  MIC: 0.5 µg/mL (≈ 1.1 µM)
S. pneumoniae (n = 12); S. pneumoniae IHMA N° 1991963
  MIC: 0.5 µg/mL (≈ 1.1 µM)
S. pneumoniae (n = 12); S. pneumoniae IHMA N° 2057487
  MIC: 0.5 µg/mL (≈ 1.1 µM)
S. pneumoniae (n = 12); S. pneumoniae IHMA N° 2073087
  MIC: 0.5 µg/mL (≈ 1.1 µM)
S. pneumoniae (n = 12); S. pneumoniae IHMA N° 2117109
  MIC: 0.12 µg/mL (≈ 0.264 µM)
S. pneumoniae (n = 12); n = 12
  MIC, all isolates: ≤ 0.5 µg/mL
[4]; with S9, 25 µM
  % Micronuclei: 2.7%
  No. binucleate cells: 1707
[4]; with S9, 50 µM
  % Cytostasis: 1.4%
  % Micronuclei: 4.5%
  No. binucleate cells: 1296
[4]; with S9, 100 µM
  % Cytostasis: tox
[4]; with S9 activation
  genotoxic concentration (no genotoxicity up to): > 50 µM
[4]; without S9, 6.25 µM
  % Micronuclei: 2.8%
  No. binucleate cells: 3160
[4]; without S9, 25 µM
  % Micronuclei: 2.5%
  No. binucleate cells: 2644
[4]; without S9, 50 µM
  % Cytostasis: 0.1%
  % Micronuclei: 4.4%
  No. binucleate cells: 1687
[4]; without S9, 100 µM
  % Cytostasis: 40.8%
  % Micronuclei: 7%
  No. binucleate cells: 642
[4]; without S9, […]
  % Micronuclei: 2.7%
[4]; without metabolic activation
  genotoxic concentration (no genotoxicity up to): > 100 µM
[5]; PAO1, P. aeruginosa PAO1
  MIC: > 64 µg/mL
[5]; PAO1, P. aeruginosa PAO750, efflux-defective
  MIC: 0.25 µg/mL (≈ 0.549 µM)
Hemolysis assay
  hemolysis at 45 min, 100 μM: 0.28 ± 0.01%
